These results are taken from patent publication US10004232B2 (priority 2011, dated 2018).

Series [1] is described as follows: logP determination by HPLC on reversed-phase columns (C 18), EEC Directive 79/831 Annex V.A8. The following applies: for chromatographic logP: reversed-phase C18 HPLC column. The format is physicochemical. An excerpt: Calibration takes place using unbranched alkan-2-ones (having 3 to 16 carbon atoms) whose log P values are known (log P values determined on the basis of the retention times, by linear interpolation between two successive alkanones).

In the next series the test system is Plasmopara viticola. Nature of the series: Plasmopara test (grapevine) / protective. The format is in vivo. The following applies: young grapevine plants, protective spray, active ingredient concentration 10 ppm, evaluation 6 days after inoculation. How it is done: Plasmopara Test (Grapevine)/Protective
Solvent: 24.5 parts by weight of acetone
• 24.5 parts by weight of dimethylacetamide Emulsifier: 1 part by weight of alkylaryl polyglycol ether
An appropriate preparation of active ingredient is prepared by mixing 1 part by weight of active ingredient with the specified amounts of solvent and emulsifier, and diluting the concentrate with water to the desired concentration.
To test for protective activity, young plants are sprayed with the preparation of active ingredient at the specified application rate. After the spray coating has dried on, the plants are inoculated with an aqueous spore suspension of Plasmopara viticola and then spend 1 day in an incubation cabinet at about 20° C. and 100% relative atmospheric humidity. The plants are subsequently placed for 4 days in a greenhouse at about 21° C. and about 90% atmospheric humidity. The plants are then moistened and placed in an incubation cabin for 1 day.
Evaluation takes place 6 days after inoculation. Here, 0% denotes an efficacy which corresponds to that of the control, whereas an efficacy of 100% means that no infestation is observed.

Another series relates to Phytophthora infestans. Format: in vivo. The following applies: young tomato plants, protective spray, active ingredient concentration 100 ppm, evaluation 7 days after inoculation.
Where [2] appears, read: [a] LC-MS in the acidic range, pH 2.7, 0.1% aqueous formic acid and acetonitrile.
Where [3] appears, read: [b] LC-MS in the neutral range, pH 7.8, 0.001 molar aqueous ammonium hydrogencarbonate and acetonitrile.

A word on the LogP: it is the decadic logarithm of the partition coefficient of the neutral form, usually between octanol and water. A lower LogP goes with a more hydrophilic compound. For orientation: chromatographic logP means lipophilicity estimated from chromatographic retention. Low values mean a more hydrophilic compound, high ones a more lipophilic compound.

Take `C=CCOc1ccc(F)c(F)c1C1CC(c2csc(C3CCN(C(=O)Cn4nc(C(F)F)cc4C(F)F)CC3)n2)=NO1` (racemic) [Example I-17]: the LogP in series [1] (setting [2]) was 3.53; in series [1] (setting [3]), 3.56. The same compound gave an Eff. % in the series with Plasmopara viticola of 100%.

Regarding `C=CCOc1cc(F)cc(F)c1C1CC(c2csc(C3CCN(C(=O)Cn4nc(C(F)F)cc4C(F)F)CC3)n2)=NO1` (racemic) [Example I-20], the LogP in series [1] (setting [2]) came out at 3.67; in series [1] (setting [3]), 3.58. Also, the Eff. % in the series with Plasmopara viticola stood at 100%.

For the compound `C=CCOc1ccc(F)c(C2CC(c3csc(C4CCN(C(=O)Cn5nc(C(F)F)cc5C(F)F)CC4)n3)=NO2)c1F` (stereo not drawn) [Example I-4, 1-[4-(4-{5-[3-(Allyloxy)-2,6-difluorophenyl]-4,5-dihydro-1,2-oxazol-3-yl}-1,3-thiazol-2-yl)piperidin-1-yl]-2-[3,5-bis(difluoromethyl)-1H-pyrazol-1-yl]ethanone], the results for the chromatographic logP in series [1] (setting [2]) and in series [1] (setting [3]) were 3.59 and 3.51, respectively. For the same compound, the Eff. % amounted to 100% in the series on Plasmopara viticola and 95% in the series with Phytophthora infestans.

Turning to `C=CCOc1cc(F)c(C2CC(c3csc(C4CCN(C(=O)Cn5nc(C(F)F)cc5C(F)F)CC4)n3)=NO2)c(F)c1` (racemic) [Example I-11], the log partition coefficient (LogP) in series [1] (setting [2]) was 3.7^[a].

With `C#CCOc1ccc(F)c(C2CC(c3csc(C4CCN(C(=O)Cn5nc(C(F)F)cc5C(F)F)CC4)n3)=NO2)c1F` (stereo not drawn) [Example I-2, 2-[3,5-Bis(difluoromethyl)-1H-pyrazol-1-yl]-1-[4-(4-{5-[2,6-difluoro-3-(prop-2-yn-1-yloxy)phenyl]-4,5-dihydro-1,2-oxazol-3-yl}-1,3-thiazol-2-yl)piperidin-1-yl]ethanone], the chromatographic logP in series [1] (setting [2]) came to 3.26; in series [1] (setting [3]) it was 3.18. For the same compound, the Eff. % with Plasmopara viticola is 100%; in the series on Phytophthora infestans, 94%.

As for `C=CCOc1cc(Cl)cc(Cl)c1C1CC(c2csc(C3CCN(C(=O)Cn4nc(C(F)F)cc4C(F)F)CC3)n2)=NO1` (racemic) [Example I-18], the values for the lipophilicity (LogP) in series [1] (setting [2]) and in series [1] (setting [3]) were 4.29 and 4.2, respectively. The Eff. % is reported as 96% in the series on Plasmopara viticola and 95% in the series on Phytophthora infestans.

Regarding `C#CCOc1cc(F)c(C2CC(c3csc(C4CCN(C(=O)Cn5nc(C(F)F)cc5C(F)F)CC4)n3)=NO2)c(F)c1` (racemic) [Example I-3], the lipophilicity (LogP) in series [1] (setting [2]) was determined as 3.3; in series [1] (setting [3]) it was 3.26. The Eff. % in the series on Plasmopara viticola came to 100%; in the series on Phytophthora infestans, 98%.

`C#CCOc1cc(F)cc(F)c1C1CC(c2csc(C3CCN(C(=O)Cn4nc(C(F)F)cc4C(F)F)CC3)n2)=NO1` (racemic) [Example I-13]: in series [1] (setting [2]), the log partition coefficient (LogP) was 3.32^[a]. Further, in the series with Plasmopara viticola, the Eff. % is recorded as 100%.

Regarding `C#CCOc1cc(Cl)cc(Cl)c1C1CC(c2csc(C3CCN(C(=O)Cn4nc(C(F)F)cc4C(F)F)CC3)n2)=NO1` (racemic) [Example I-21], the figures for the LogP in series [1] (setting [2]) and in series [1] (setting [3]) were 3.94 and 3.85, respectively. Further, the Eff. % in the series on Plasmopara viticola was 100%; in the series with Phytophthora infestans it was 95%.

Turning to `C#CCOc1ccc(F)c(F)c1C1CC(c2csc(C3CCN(C(=O)Cn4nc(C(F)F)cc4C(F)F)CC3)n2)=NO1` (racemic) [Example I-8], the results for the lipophilicity (LogP) in series [1] (setting [2]) and in series [1] (setting [3]) were 3.3 and 3.27, respectively. For the same compound, the Eff. % with Plasmopara viticola amounted to 100%.

For the compound `C=C(Cl)COc1ccc(F)c(F)c1C1CC(c2csc(C3CCN(C(=O)Cn4nc(C(F)F)cc4C(F)F)CC3)n2)=NO1` (racemic) [Example I-7], the values for the LogP in series [1] (setting [2]) and in series [1] (setting [3]) were 3.68 and 3.69, respectively. This compound also displayed an Eff. % in the series on Plasmopara viticola of 100%.

Regarding `C#CCOc1c(F)cc(F)cc1C1CC(c2csc(C3CCN(C(=O)Cn4nc(C(F)F)cc4C(F)F)CC3)n2)=NO1` (racemic) [Example I-10], the values for the LogP in series [1] (setting [2]) and in series [1] (setting [3]) were 3.58 and 3.51, respectively.

Turning to `C=C(Cl)COc1cc(F)cc(F)c1C1CC(c2csc(C3CCN(C(=O)Cn4nc(C(F)F)cc4C(F)F)CC3)n2)=NO1` (racemic) [Example I-19], the LogP in series [1] (setting [2]) came out at 3.79; in series [1] (setting [3]), 3.7. Moreover, the Eff. % in the series with Plasmopara viticola is listed as 100%.

In the case of `O=C(Oc1cc(F)cc(F)c1C1CC(c2csc(C3CCN(C(=O)Cn4nc(C(F)F)cc4C(F)F)CC3)n2)=NO1)C1CC1` (racemic) [Example I-16], the lipophilicity (LogP) in series [1] (setting [2]) amounted to 3.5; in series [1] (setting [3]), 3.42.

Consider `O=C(Oc1cc(F)c(C2CC(c3csc(C4CCN(C(=O)Cn5nc(C(F)F)cc5C(F)F)CC4)n3)=NO2)c(F)c1)C1CC1` (racemic) [Example I-9], for which the lipophilicity (LogP) in series [1] (setting [2]) was 3.53^[a].

For the compound `O=Cc1cc(F)c(C2CC(c3csc(C4CCN(C(=O)Cn5nc(C(F)F)cc5C(F)F)CC4)n3)=NO2)c(F)c1` (racemic) [Example I-14], the results for the lipophilicity (LogP) in series [1] (setting [2]) and in series [1] (setting [3]) were 2.93 and 2.87, respectively.

In the case of `O=C(Cn1nc(C(F)F)cc1C(F)F)N1CCC(c2nc(C3=NOC(c4c(F)cc(F)cc4OCC4CC4)C3)cs2)CC1` (racemic) [Example I-15], the LogP in series [1] (setting [2]) came to 3.81; in series [1] (setting [3]), 3.76.

Take `C#CCOc1cc(C)c(C)cc1C1(C)CC(c2csc(C3CCN(C(=O)Cn4nc(C(F)F)cc4C(F)F)CC3)n2)=NO1` (stereo not drawn) [Example I-1, 2-[3,5-Bis(difluoromethyl)-1H-pyrazol-1-yl]-1-[4-(4-{5-[4,5-dimethyl-2-(prop-2-yn-1-yloxy)phenyl]-5-methyl-4,5-dihydro-1,2-oxazol-3-yl}-1,3-thiazol-2-yl)piperidin-1-yl]ethanone]: the chromatographic logP in series [1] (setting [2]) came to 4.1; in series [1] (setting [3]) it was 4.04. This compound showed an Eff. % in the series with Phytophthora infestans of 98%.

As for `C#CCOc1c(F)ccc(F)c1C1CC(c2csc(C3CCN(C(=O)Cn4nc(C(F)F)cc4C(F)F)CC3)n2)=NO1` (racemic) [Example I-12], the LogP in series [1] (setting [2]) was 3.31; in series [1] (setting [3]), 3.3.

Take `CS(=O)(=O)Nc1cc(F)c(C2CC(c3csc(C4CCN(C(=O)Cn5nc(C(F)F)cc5C(F)F)CC4)n3)=NO2)c(F)c1` (stereo not drawn) [Example I-5, N-(4-{3-[2-(1-{[3,5-Bis(difluoromethyl)-1H-pyrazol-1-yl]acetyl}piperidin-4-yl)-1,3-thiazol-4-yl]-4,5-dihydro-1,2-oxazol-5-yl}-3,5-difluorophenyl)methanesulphonamide]: in series [1] (setting [2]), the chromatographic logP was 2.63. Besides, the Eff. % in the series on Plasmopara viticola was 96%; with Phytophthora infestans, 95%.

Consider `O=C(Cn1nc(C(F)F)cc1C(F)F)N1CCC(c2nc(C3=NOC(c4c(OC/C=C\Cl)ccc(F)c4F)C3)cs2)CC1` (racemic) [Example I-6], for which the lipophilicity (LogP) in series [1] (setting [2]) is 3.79; in series [1] (setting [3]), 3.71.
